# According to publication PMC7413254 (Nature Communications, 2020):
# Read-outs that look alike come from different tables or passages of the source.
# Columns and labels:
# non-expressing oocytes [1] = assay: cells; type: cell-based, Xenopus laevis; settings: Xenopus laevis, total [3H]CQ transport; for inhibition at 500 µM: [test solute] = 0.5 mM; for inhibition at 1000 µM: [test solute] = 1 mM; for inhibition at 2000 µM: [test solute] = 2 mM
# Method in brief: (§1)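 Transport runs from the acidic bath into the cytosol, analogous to PfCRT-mediated efflux out of the vacuole. Non-expressing oocytes act as background.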
# PfCRT^3D7 [2] = target: T1, PfCRT^3D7 (Plasmodium falciparum, UniProt Q8IBZ9); assay: cell-based; type: cell-based; settings: total [3H]CQ transport; for inhibition at 500 µM: [test solute] = 0.5 mM; for inhibition at 1000 µM: [test solute] = 1 mM; for inhibition at 2000 µM: [test solute] = 2 mM
# Method in brief: as §1
# PfCRT^Dd2 [3] = target: T2, PfCRT^Dd2 (Plasmodium falciparum, UniProt Q9N623, A220S/I356T/K76T/M74I/N326S/N75E/Q271E/R371I); assay: [3H]CQ uptake into Xenopus oocytes, cis-inhibition by unlabelled solute; type: cell-based
# Method in brief: as §1
# PfCRT^Ecu1110 [4] = target: T3, PfCRT^Ecu1110 (Plasmodium falciparum, UniProt Q9N623, A220S/I356L/K76T/N326D); assay: as above; type: cell-based
# Method in brief: as §1
# non-expressing oocytes [5] = type: cell-based, Xenopus laevis; settings: total [3H]CQ transport; for Uptake of [3H]CQ (% non-expressing oocyte control), trans-stimulation: non-expressing oocytes, normalised to the oocyte type control; for Uptake of [3H]CQ (% PfCRTDd2 control), trans-stimulation, non-expressing oocytes: mean ± SEM, SEM
# Method in brief: (§2)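 Oocytes (ten per treatment, ≥4 independent frogs/days) were preloaded by injecting VF-6 in 25 nL ND96 at pH 5.0, 5.5, 6.0 or 7.0, or Na^+-free choline buffer, then uptake run 1.5 h, 27.5 °C, ND96 pH 5.5 by default. Internal concentrations assumed ~400 nL oocyte volume.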
# PfCRT^3D7 [6] = target: T1, PfCRT^3D7; assay: cell-based; type: cell-based
# Method in brief: as §2
# PfCRT^Dd2 [7] = target: T2, PfCRT^Dd2; assay: cell-based; type: cell-based; settings: […]; for activity at 45000 µM: [test solute]i = 45 mM (30 mM for some solutes due to solubility)
# Method in brief: as §2
# PfCRT^Ecu1110 [8] = target: T3, PfCRT^Ecu1110; assay: cell-based; type: cell-based; settings: […]
# Method in brief: as §2
# PfNT1 = target: T4, PfNT1 (Plasmodium falciparum, UniProt Q8IDM6); assay: cell-based; type: cell-based; settings: […], read-out: Uptake of [3H]CQ (% PfCRTDd2 control), trans-stimulation, PfNT1; SEM
# T4 construct: expressed in transfected cells; host or cells: Xenopus laevis oocytes (stage V-VI), cRNA-injected
# Method in brief: as §2
# PfCRT [9] = assay: Influx of VF-6 via PfCRT into the oocyte, solutes tested as potential co-substrates; type: cell-based, Plasmodium falciparum; set-up: key: X: Compounds that have been tested as potential co-substrates but are not required for influx of VF-6 via PfCRT into the oocyte; settings: X marks the solute
# PfCRT [10] = assay: Potential co-substrates tested for influx of VF-6 via PfCRT into the oocyte; type: cell-based, Plasmodium falciparum; set-up: key: X: Compounds that have been tested as potential co-substrates but are not required for influx of VF-6 via PfCRT into the oocyte
# [11] = Oocyte, mean ± SEM, SEM, read-out: Uptake of [3H]CQ (% PfCRTDd2 control), cis-inhibition, non-expressing oocytes
# [12] = non-expressing oocytes, normalised to the oocyte type control, read-out: Uptake of [3H]CQ (% non-expressing oocyte control), cis-inhibition
# [13] = PfCRT3D7 oocytes, normalised to the oocyte type control, read-out: Uptake of [3H]CQ (% PfCRT3D7 control), cis-inhibition
# [14] = mean ± SEM, SEM, read-out: Uptake of [3H]CQ (% PfCRTDd2 control), cis-inhibition, PfCRT3D7
# [15] = read-out: PfCRT-mediated [3H]CQ transport, cis-inhibition (% PfCRTDd2 control)
# [16] = read-out: Uptake of [3H]CQ (% PfCRTDd2 control), cis-inhibition
# [17] = read-out: Uptake of [3H]CQ (% PfCRTDd2 control), cis-inhibition, PfCRTDd2, SEM
# [18] = read-out: [3H]CQ transport (% PfCRTDd2 control), cis-inhibition, PfCRTDd2, SEM
# [19] = read-out: PfCRT-mediated [3H]CQ transport, cis-inhibition (% PfCRTEcu1110 control)
# [20] = read-out: Uptake of [3H]CQ (% PfCRTDd2 control), cis-inhibition, PfCRTEcu1110, SEM
# [21] = read-out: Uptake of [3H]CQ (% PfCRTEcu1110 control), cis-inhibition
# [22] = read-out: [3H]CQ transport (% PfCRTEcu1110 control), cis-inhibition, PfCRTEcu1110, SEM
# T3 sequence (Q9N623 whole entry A220S/I356L/K76T/N326D): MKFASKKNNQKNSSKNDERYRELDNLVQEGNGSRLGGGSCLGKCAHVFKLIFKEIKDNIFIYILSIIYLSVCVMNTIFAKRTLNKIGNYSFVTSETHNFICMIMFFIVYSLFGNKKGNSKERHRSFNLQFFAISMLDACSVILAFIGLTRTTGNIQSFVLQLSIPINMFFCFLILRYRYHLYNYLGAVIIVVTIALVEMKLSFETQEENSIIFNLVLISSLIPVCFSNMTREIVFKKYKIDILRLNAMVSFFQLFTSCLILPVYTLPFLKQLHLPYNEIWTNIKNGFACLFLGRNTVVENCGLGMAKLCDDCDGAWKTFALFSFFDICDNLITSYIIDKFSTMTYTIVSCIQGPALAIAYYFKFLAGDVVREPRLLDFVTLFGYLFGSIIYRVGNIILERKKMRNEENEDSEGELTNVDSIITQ
# T2 sequence (Q9N623 whole entry A220S/I356T/K76T/M74I/N326S/N75E/Q271E/R371I): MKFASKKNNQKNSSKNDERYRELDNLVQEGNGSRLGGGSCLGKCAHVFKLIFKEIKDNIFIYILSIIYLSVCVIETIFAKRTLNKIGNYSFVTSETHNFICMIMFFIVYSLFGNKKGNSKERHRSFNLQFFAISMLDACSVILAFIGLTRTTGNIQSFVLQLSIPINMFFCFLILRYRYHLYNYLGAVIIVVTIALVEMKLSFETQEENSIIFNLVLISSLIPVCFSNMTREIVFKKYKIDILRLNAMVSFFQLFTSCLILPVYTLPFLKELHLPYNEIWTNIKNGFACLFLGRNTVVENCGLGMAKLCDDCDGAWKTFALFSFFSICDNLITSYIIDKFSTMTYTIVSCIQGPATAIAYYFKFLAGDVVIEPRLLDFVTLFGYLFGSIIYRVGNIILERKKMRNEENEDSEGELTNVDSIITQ
# T1 sequence (Q8IBZ9 59-398): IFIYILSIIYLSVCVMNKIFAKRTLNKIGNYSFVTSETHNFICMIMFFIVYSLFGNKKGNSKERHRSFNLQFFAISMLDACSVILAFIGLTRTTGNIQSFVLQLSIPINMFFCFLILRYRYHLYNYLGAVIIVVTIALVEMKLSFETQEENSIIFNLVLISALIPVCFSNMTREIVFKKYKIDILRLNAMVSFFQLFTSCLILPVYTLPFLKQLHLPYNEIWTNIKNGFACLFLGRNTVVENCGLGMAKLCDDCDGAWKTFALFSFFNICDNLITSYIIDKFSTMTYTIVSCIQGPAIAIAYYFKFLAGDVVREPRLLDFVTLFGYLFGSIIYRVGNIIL
# T4 sequence (Q8IDM6 whole entry): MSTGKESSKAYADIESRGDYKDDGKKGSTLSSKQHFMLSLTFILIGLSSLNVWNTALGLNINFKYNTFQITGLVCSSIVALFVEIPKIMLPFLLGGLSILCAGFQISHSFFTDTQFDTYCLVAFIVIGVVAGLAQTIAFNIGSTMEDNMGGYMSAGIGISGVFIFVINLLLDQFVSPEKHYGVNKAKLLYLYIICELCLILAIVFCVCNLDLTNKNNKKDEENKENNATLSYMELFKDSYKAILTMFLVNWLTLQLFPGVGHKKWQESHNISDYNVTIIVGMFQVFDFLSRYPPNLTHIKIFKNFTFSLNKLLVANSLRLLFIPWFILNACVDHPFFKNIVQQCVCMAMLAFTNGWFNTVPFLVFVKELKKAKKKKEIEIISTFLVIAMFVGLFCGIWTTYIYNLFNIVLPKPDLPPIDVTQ
structure (smiles),measurement,setting,value
N[C@@H](CCC(=O)O)C(=O)O [L-glutamic acid],inhibition at 500 µM,non-expressing oocytes [1]; [11],2.5 ± 0.05%
same,inhibition at 1000 µM,non-expressing oocytes [1]; [11],2.7 ± 0.07%
same,inhibition at 2000 µM,non-expressing oocytes [1]; [11],3.8 ± 0.07%
same,inhibition at 500 µM,non-expressing oocytes [1]; [12],98 ± 4.7%
same,inhibition at 1000 µM,non-expressing oocytes [1]; [12],98 ± 3.7%
same,inhibition at 2000 µM,non-expressing oocytes [1]; [12],98 ± 5.2%
same,inhibition at 500 µM,PfCRT^3D7 [2]; [13],100 ± 3.8%
same,inhibition at 1000 µM,PfCRT^3D7 [2]; [13],101 ± 5.2%
same,inhibition at 2000 µM,PfCRT^3D7 [2]; [13],98 ± 5.7%
same,inhibition at 500 µM,PfCRT^3D7 [2]; [14],2.2 ± 0.01%
same,inhibition at 1000 µM,PfCRT^3D7 [2]; [14],2.8 ± 0.03%
same,inhibition at 2000 µM,PfCRT^3D7 [2]; [14],3.2 ± 0.08%
same,inhibition at 500 µM,PfCRT^Dd2 [3]; [15],96 ± 4.7%
same,inhibition at 1000 µM,PfCRT^Dd2 [3]; [15],94 ± 4.2%
same,inhibition at 2000 µM,PfCRT^Dd2 [3]; [15],94 ± 2.9%
same,inhibition at 1000 µM,PfCRT^Dd2 [3]; [16],96 ± 2.5%
same,inhibition at 2000 µM,PfCRT^Dd2 [3]; [16],96 ± 3.3%
same,inhibition at 500 µM,PfCRT^Dd2 [3]; [17],98 ± 2.7%
same,inhibition at 1000 µM,PfCRT^Dd2 [3]; [17],96 ± 2.5%
same,inhibition at 2000 µM,PfCRT^Dd2 [3]; [17],96 ± 3.3%
same,inhibition at 500 µM,PfCRT^Dd2 [3]; [18],96 ± 4.7%
same,inhibition at 1000 µM,PfCRT^Dd2 [3]; [18],94 ± 4.2%
same,inhibition at 2000 µM,PfCRT^Dd2 [3]; [18],94 ± 2.9%
same,inhibition at 500 µM,PfCRT^Ecu1110 [4]; [19],92 ± 4.5%
same,inhibition at 1000 µM,PfCRT^Ecu1110 [4]; [19],93 ± 5.1%
same,inhibition at 500 µM,PfCRT^Ecu1110 [4]; [20],31 ± 1.5%
same,inhibition at 1000 µM,PfCRT^Ecu1110 [4]; [20],31 ± 2%
same,inhibition at 2000 µM,PfCRT^Ecu1110 [4]; [20],32 ± 1.9%
same,inhibition at 500 µM,PfCRT^Ecu1110 [4]; [21],94 ± 3.5%
same,inhibition at 1000 µM,PfCRT^Ecu1110 [4]; [21],96 ± 2.4%
same,inhibition at 2000 µM,PfCRT^Ecu1110 [4]; [21],99 ± 4.6%
same,inhibition at 500 µM,PfCRT^Ecu1110 [4]; [22],28 ± 0.8%
same,inhibition at 1000 µM,PfCRT^Ecu1110 [4]; [22],28 ± 0.6%
same,inhibition at 2000 µM,PfCRT^Ecu1110 [4]; [22],29 ± 0.4%
same,"Uptake of [3H]CQ (% non-expressing oocyte control), trans-stimulation",non-expressing oocytes [5]; [test solute]i = 5 mM,99 ± 2.1 % non-expressing oocyte control
same,"Uptake of [3H]CQ (% non-expressing oocyte control), trans-stimulation",non-expressing oocytes [5]; [test solute]i = 45 mM (30 mM for some solutes due to solubility),99 ± 3.3 % non-expressing oocyte control
same,"Uptake of [3H]CQ (% PfCRTDd2 control), trans-stimulation, non-expressing oocytes",non-expressing oocytes [5]; [test solute]i = 5 mM (intracellular),3.1 ± 0.08 % PfCRTDd2 control
same,"Uptake of [3H]CQ (% PfCRTDd2 control), trans-stimulation, non-expressing oocytes",non-expressing oocytes [5]; [test solute]i = 45 mM (intracellular; 30 mM for some solutes due to solubility),2.9 ± 0.05 % PfCRTDd2 control
same,activity at 5000 µM,"PfCRT^3D7 [6]; PfCRT3D7 oocytes, [test solute]i = 5 mM, total [3H]CQ transport, normalised to the oocyte type control, read-out: Uptake of [3H]CQ (% PfCRT3D7 control), trans-stimulation",101 ± 2.6%
same,"[3H]CQ transport (% PfCRT3D7 control), trans-stimulation, PfCRT3D7",PfCRT^3D7 [6]; SEM,0.4 ± 0.02 % PfCRT3D7 control
same,activity at 5000 µM,"PfCRT^3D7 [6]; [test solute]i = 5 mM (intracellular), PfCRT3D7 oocytes, normalised to oocyte type control, read-out: PfCRT-mediated [3H]CQ transport, trans-stimulation (% PfCRT3D7 control)",99 ± 3.9%
same,activity at 45000 µM,"PfCRT^3D7 [6]; SEM, read-out: Uptake of [3H]CQ (% PfCRTDd2 control), trans-stimulation, PfCRT3D7",3.3 ± 0.02%
same,activity at 45000 µM,"PfCRT^3D7 [6]; read-out: PfCRT-mediated [3H]CQ transport, trans-stimulation (% PfCRT3D7 control)",97 ± 1.8%
same,activity at 45000 µM,"PfCRT^3D7 [6]; read-out: Uptake of [3H]CQ (% PfCRT3D7 control), trans-stimulation",99 ± 2.6%
same,activity at 5000 µM,"PfCRT^3D7 [6]; total [3H]CQ transport, [test solute]i = 5 mM (intracellular), mean ± SEM, SEM, read-out: Uptake of [3H]CQ (% PfCRTDd2 control), trans-stimulation, PfCRT3D7",3.4 ± 0.02%
same,activity at 5000 µM,"PfCRT^Dd2 [7]; pH 5.5, read-out: PfCRT-mediated [3H]CQ transport, trans-stimulation (% PfCRTDd2 control), [test solute]i = 5 mM (intracellular), PfCRTDd2 oocytes, normalised to oocyte type control",99 ± 3.5%
same,activity at 5000 µM,"PfCRT^Dd2 [7]; pH 5.5, read-out: Uptake of [3H]CQ (% PfCRTDd2 control), trans-stimulation, PfCRTDd2, total [3H]CQ transport, [test solute]i = 5 mM (intracellular), mean ± SEM, SEM",101 ± 2.2%
same,activity at 5000 µM,"PfCRT^Dd2 [7]; pH 5.5, read-out: Uptake of [3H]CQ (% PfCRTDd2 control), trans-stimulation, PfCRTDd2 oocytes, [test solute]i = 5 mM, total [3H]CQ transport, normalised to the oocyte type control",101 ± 2.2%
same,activity at 45000 µM,"PfCRT^Dd2 [7]; pH 5.5, read-out: Uptake of [3H]CQ (% PfCRTDd2 control), trans-stimulation, PfCRTDd2 oocytes, total [3H]CQ transport, normalised to the oocyte type control",96 ± 2.8%
same,activity at 5000 µM,"PfCRT^Dd2 [7]; pH 5.5, read-out: [3H]CQ transport (% PfCRTDd2 control), trans-stimulation, PfCRTDd2, trans-stimulation, [test solute]i = 5 mM (injected), PfCRT-mediated component (background subtracted), mean ± SEM, SEM",99 ± 3.5%
same,activity at 45000 µM,"PfCRT^Dd2 [7]; pH 5.5, read-out: [3H]CQ transport (% PfCRTDd2 control), trans-stimulation, PfCRTDd2, trans-stimulation, PfCRT-mediated component (background subtracted), mean ± SEM, SEM",94 ± 4.2%
same,activity at 5000 µM,"PfCRT^Ecu1110 [8]; pH 5.5, read-out: PfCRT-mediated [3H]CQ transport, trans-stimulation (% PfCRTEcu1110 control), [test solute]i = 5 mM (intracellular), PfCRTEcu1110 oocytes, normalised to oocyte type control",97 ± 2.4%
same,activity at 5000 µM,"PfCRT^Ecu1110 [8]; pH 5.5, read-out: Uptake of [3H]CQ (% PfCRTEcu1110 control), trans-stimulation, PfCRTEcu1110 oocytes, [test solute]i = 5 mM, total [3H]CQ transport, normalised to the oocyte type control",99 ± 3.6%
same,activity at 45000 µM,"PfCRT^Ecu1110 [8]; pH 5.5, read-out: Uptake of [3H]CQ (% PfCRTEcu1110 control), trans-stimulation, PfCRTEcu1110 oocytes, [test solute]i = 45 mM (30 mM for some solutes due to solubility), total [3H]CQ transport, normalised to the oocyte type control",100 ± 3.7%
same,activity at 5000 µM,"PfCRT^Ecu1110 [8]; read-out: Uptake of [3H]CQ (% PfCRTDd2 control), trans-stimulation, PfCRTEcu1110, total [3H]CQ transport, [test solute]i = 5 mM (intracellular), mean ± SEM, SEM",35 ± 1.5%
same,activity at 45000 µM,"PfCRT^Ecu1110 [8]; read-out: Uptake of [3H]CQ (% PfCRTDd2 control), trans-stimulation, PfCRTEcu1110, total [3H]CQ transport, [test solute]i = 45 mM (intracellular; 30 mM for some solutes due to solubility), mean ± SEM, SEM",36 ± 2.1%
same,activity at 5000 µM,PfNT1,2.7 ± 0.06%
same,Compounds that have been tested as potential co-substrates but are not required for influx of VF-6 via PfCRT into the oocyte,PfCRT [9],X
same,Tested as potential co-substrate but not required for influx of VF-6 via PfCRT into the oocyte,PfCRT [10],X
